# Measurements taken from patent US20160279110A1, “COMPOSITIONS AND METHODS FOR TREATING CANCER” (UNIVERSITY OF ROCHESTER, priority 2015, published 2016).
# Key:
# UPF1 [1] = assay: Western blot of UPF1 CP generation in HEK293T cells; type: cell-based, human; conditions: 300 μg/mL CHX or 1 μM staurosporine
# Method: (§1) FIG. 10b is essentially as in a, but using lysates of HEK293T cells exposed to 1 μM staurosporine. FIG. 10c is essentially as in a, but using lysates of human Daudi B lymphoblasts exposed to 40 ng/mL TNF-α or 2 μg/mL doxorubicin. FIG. 10d is essentially as in a, but using lysates of human Jurkat T cells exposed to 1 μM staurosporine. FIG. 10e is essentially as in a, but using lysates of canine MDCK cells exposed to 2 μM staurosporine. FIG. 10f is essentially as in a, but using lysates of bovine MDBK cells exposed to 2 μM staurosporine. FIG. 10g is essentially as in a, but using lysates of Chinese Hamster Ovary (CHO) cells exposed to 2 μM staurosporine. FIG. 10h is essentially as in a, but using lysates of African green monkey COS-7 cells exposed to 2 μM staurosporine or 2 μg/mL doxorubicin. At least two apoptotic inducers were used for each cell line, and at least two cell lines were tested with each apoptotic inducer.
# (§2) Cells were lysed, and protein was isolated using hypotonic buffer that consists of 10 mM Tris-C1, pH 7.4, 10 mM NaCl, 2 mM EDTA, 0.5% Triton X-100, 2 mM benzamidine, 1 mM PMSF, NEM (50 μg/mL), 1× phosphatase inhibitor cocktail (Roche), and 1× protease inhibitor cocktail (Roche; Basel, Switzerland). […] Immunoreactivity was assessed using SuperSignal West Pico or Femto (Pierce Biotechnology; Waltham, Mass.). […]
# UPF1 [2] = assay: Western blot of UPF1 CP generation in C2C12 myoblasts; type: cell-based, mouse; conditions: C2C12, CHX 100 or 300 μg/ml, ETP 100 μM 5 h pulse
# Method: CHX concentrations were 100 or 300 μg ml^−1, and a 5 h pulse of ETP was used at 100 μM. At least two apoptotic inducers were used for each cell line, and at least two cell lines were tested with each apoptotic inducer.
# (§3) Cells were lysed, and protein was isolated using hypotonic buffer that consists of 10 mM Tris-C1, pH 7.4, 10 mM NaCl, 2 mM EDTA, 0.5% Triton X-100, 2 mM benzamidine, 1 mM PMSF, NEM (50 μg/mL), 1× phosphatase inhibitor cocktail (Roche), and 1× protease inhibitor cocktail (Roche; Basel, Switzerland). After 10 minutes of incubation at 4° C., NaCl was added to 150 mM, and lysates were cleared by centrifugation. […] Immunoreactivity was assessed using SuperSignal West Pico or Femto (Pierce Biotechnology; Waltham, Mass.).
# UPF1 [3] = assay: Western blot of UPF1 CP generation in HeLa cells; type: cell-based, human
# Method: […] At least two apoptotic inducers were used for each cell line, and at least two cell lines were tested with each apoptotic inducer.
# UPF1 CP may result from cleavage of endogenous UPF1 or the transfected construct, but the use of anti-FLAG allows unambiguous assignment of UPF1-FLAG CP as derived from MYC-UPF1-FLAG. α, anti; h, hour(s). […] To serve as molecular weight standards for UPF1 CP, lysates of MCF7 cells transiently expressing a UPF1-FLAG protein encompassing the residues specified were also analyzed. […] The D37 cleavage site encompassing P4-P1 residues is boxed. […] Immunoblots are representative of at least 2 independent experiments.
# as §2
# Inventories of in vivo apoptotic cleavage events indicate that cleavage specificity in living cells is determined chiefly by an aspartic acid residue at the P1 position; P4-P2 residues contribute far less to specificity in cells than is indicated by in vitro-derived peptide-based substrate profiles. […]
# UPF1 [4] = assay: Western blot of UPF1 CP generation in CHO cells; type: cell-based, Chinese hamster; conditions: 2 μM staurosporine
# Method: as §1
# (§4) Cells were lysed, and protein was isolated using hypotonic buffer that consists of 10 mM Tris-C1, pH 7.4, 10 mM NaCl, 2 mM EDTA, 0.5% Triton X-100, 2 mM benzamidine, 1 mM PMSF, NEM (50 μg/mL), 1× phosphatase inhibitor cocktail (Roche), and 1× protease inhibitor cocktail (Roche; Basel, Switzerland). […] Immunoreactivity was assessed using SuperSignal West Pico or Femto (Pierce Biotechnology; Waltham, Mass.).
# UPF1 [5] = assay: Western blot of UPF1 CP generation in Jurkat T cells; type: cell-based, human; conditions: 1 μM staurosporine
# Method: as §1, §2
# UPF1 [6] = assay: Western blot of UPF1 CP generation in COS-7 cells; type: cell-based, African green monkey; conditions: COS-7, 2 μM staurosporine or 2 μg/mL doxorubicin
# Method: as §1, §4
# UPF1 [7] = assay: Western blot of UPF1 CP generation in MDCK cells; type: cell-based, canine; conditions: 2 μM staurosporine
# Method: as §1, §4
# UPF1 [8] = assay: Western blot of UPF1 CP generation in MDBK cells; type: cell-based, bovine; conditions: 2 μM staurosporine
# Method: as §1, §4
# caspases = assay: Caspase inhibitor pre-incubation before CHX, UPF1 CP western blot in HEK293T cells; type: cell-based, human; conditions: inhibitor preincubated 4 h, then CHX 300 μg/ml
# Method: FIG. 3b is a diagram of N-terminally FLAG-tagged human UPF1, showing its reactivity with anti(α)-UPF1(1-416). CH, cysteine-t histidine-rich region. […] Blots are representative of two independent experiments.
# as §3, with “Mass.). […]” for “Mass.).”
# UPF1 [9] = assay: Western blot of UPF1 CP generation in Daudi B lymphoblasts; type: cell-based, human; conditions: 40 ng/mL TNF-α or 2 μg/mL doxorubicin
# Method: as §1, §2
# MYC-UPF1-FLAG WT, Q92900 = target: T1, MYC-UPF1-FLAG WT, Q92900
# T1 chain: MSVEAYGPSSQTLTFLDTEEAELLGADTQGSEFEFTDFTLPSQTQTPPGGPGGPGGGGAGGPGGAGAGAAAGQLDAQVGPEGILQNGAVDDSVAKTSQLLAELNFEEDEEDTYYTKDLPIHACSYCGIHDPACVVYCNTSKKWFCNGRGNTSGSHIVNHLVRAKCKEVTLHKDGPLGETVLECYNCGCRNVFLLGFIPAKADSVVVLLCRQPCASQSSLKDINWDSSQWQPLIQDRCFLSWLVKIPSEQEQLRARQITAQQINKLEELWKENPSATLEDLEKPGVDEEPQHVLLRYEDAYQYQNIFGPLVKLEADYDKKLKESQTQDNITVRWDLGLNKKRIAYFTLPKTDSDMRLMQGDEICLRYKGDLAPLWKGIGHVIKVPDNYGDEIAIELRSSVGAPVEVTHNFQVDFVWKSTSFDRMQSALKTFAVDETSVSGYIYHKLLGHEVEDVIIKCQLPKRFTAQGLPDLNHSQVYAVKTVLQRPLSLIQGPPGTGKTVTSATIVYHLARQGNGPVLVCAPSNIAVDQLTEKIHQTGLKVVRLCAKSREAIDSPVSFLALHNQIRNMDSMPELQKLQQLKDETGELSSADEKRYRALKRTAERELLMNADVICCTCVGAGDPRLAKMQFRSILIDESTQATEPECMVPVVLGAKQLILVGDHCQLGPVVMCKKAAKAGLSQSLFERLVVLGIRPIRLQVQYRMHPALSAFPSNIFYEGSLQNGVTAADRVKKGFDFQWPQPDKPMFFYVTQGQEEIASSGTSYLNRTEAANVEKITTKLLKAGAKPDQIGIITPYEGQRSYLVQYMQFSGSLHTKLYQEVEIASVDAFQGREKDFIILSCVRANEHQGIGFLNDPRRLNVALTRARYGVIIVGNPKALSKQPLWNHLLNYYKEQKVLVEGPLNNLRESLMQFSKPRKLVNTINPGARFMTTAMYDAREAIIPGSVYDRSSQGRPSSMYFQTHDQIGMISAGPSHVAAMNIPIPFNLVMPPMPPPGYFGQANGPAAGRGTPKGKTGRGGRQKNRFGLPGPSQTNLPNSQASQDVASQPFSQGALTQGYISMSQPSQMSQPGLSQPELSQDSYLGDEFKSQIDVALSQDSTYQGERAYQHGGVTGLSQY
molecule,measurement,setting,value
"C[C@@H]1C[C@@H]([C@H](O)CC2CC(=O)NC(=O)C2)C(=O)[C@@H](C)C1 [CHX, cycloheximide]",UPF1 CP generation,UPF1 [1],Generation of the UPF1 CP prior to full CASP9 and CASP3 cleavage
same,UPF1 CP generation,UPF1 [2],generated a UPF1 CP prior to maximal CASP3 cleavage
same,UPF1 CP level relative to uncleaved UPF1,"UPF1 [3]; HeLa expressing UPF1 WT, D27N or D75N, 300 μg/mL CHX, anti-FLAG immunoblot",about one-third the level of uncleaved UPF1
CN[C@@H]1C[C@H]2O[C@@](C)([C@@H]1OC)n1c3ccccc3c3c4c(c5c6ccccc6n2c5c31)C(=O)NC4 [staurosporine],UPF1 CP generation,UPF1 [4],led to UPF1 CP production
same,UPF1 CP generation,UPF1 [1],"yielded two UPF1 CPs, prior to full cleavage of CASP9 and CASP3"
same,UPF1 CP generation,UPF1 [5],yielded a UPF1 CP prior to maximal cleavage of CASP3 or PARP
same,UPF1 CP generation,UPF1 [6],yielded a UPF1 CP
same,UPF1 CP generation,UPF1 [7],led to UPF1 CP production
same,UPF1 CP generation,UPF1 [8],led to UPF1 CP production
Z-VAD-fmk,level of UPF1 CP after caspase inhibitor,caspases,nearly undetectable
"COc1cc([C@@H]2c3cc4c(cc3[C@@H](O[C@@H]3O[C@@H]5CO[C@@H](C)O[C@H]5[C@H](O)[C@H]3O)[C@H]3COC(=O)[C@H]23)OCO4)cc(OC)c1O [ETP, etoposide]",UPF1 CP generation,UPF1 [2],generated a UPF1 CP prior to maximal CASP3 cleavage
same,UPF1 CP generation,"UPF1 [3]; HeLa, ETP 44 μM 6 h",induced generation of a UPF1 CP before full induction of cleaved initiator caspase 9 (CASP9) and cleaved executioner CASP3
TNF-α,UPF1 CP generation,UPF1 [9],led to generation of the UPF1 CP prior to maximal PARP cleavage
Z-DEVD-fmk,level of UPF1 CP after caspase inhibitor,caspases,nearly undetectable
Active recombinant Caspase 7 (protein) AKPDRSSFVPSLFSKKKKNVTMRSIKTTRDRVPTYQYNMNFEKLGKCIIINNKNFDKVTGMGVRNGTDKDAEALFKCFRSLGFDVIVYNDCSCAKMQDLLKKASEEDHTNAACFACILLSHGEENVIYGKDGVTPIKDLTAHFRGDRCKTLLEKPKLFFIQACRGTELDDGIQADSGPINDTDANPRYKIPVEADFLFAYSTVPGYYSWRSPGRGSWFVQALCSILEEHGKDLEIMQILTRVNDRVARHFESQSDDPHFHEKKQIPCVVSMLTKELYFSQ,"in vitro caspase cleavage, western blot","MYC-UPF1-FLAG WT, Q92900",CASP3 and CASP7 cleaved MYC-UPF1-FLAG WT
Active recombinant Caspase 3 (protein) SGISLDNSYKMDYPEMGLCIIINNKNFHKSTGMTSRSGTDVDAANLRETFRNLKYEVRNKNDLTREEIVELMRDVSKEDHSKRSSFVCVLLSHGEEGIIFGTNGPVDLKKITNFFRGDRCRSLTGKPKLFIIQACRGTELDCGIETDSGVDDDMACHKIPVEADFLYAYSTAPGYYSWRNSKDGSWFIQSLCAMLKQYADKLEFMHILTRVNRKVATEFESFSFDATFHAKKQIPCIVSMLTKELYFYH,"in vitro caspase cleavage, western blot","MYC-UPF1-FLAG WT, Q92900",CASP3 and CASP7 cleaved MYC-UPF1-FLAG WT
